Measurements reported in US4968686A, “Acyclic pyrrolo [2,3-d]pyrimidine analogs as antiviral agents” (The Regents of The University of Michigan, priority 1989, dated 1990).
Like-named read-outs stand apart in the source and are kept apart here.

Assays:
MCMV = assay: In vivo treatment of mice infected with murine cytomegalovirus (MCMV)
Method: Compound UMJD 183 was tested in mice infected with murine cytomegalovirus (MCMV). This animal model has been recognized as having capabilities predictive of efficacy in humans.
Compound UMJD 183 and the drug ganciclovir (DHPG) were administered to groups of 15 mice each at doses and times of administration shown in Table 3. Each compound at all doses was administered intraperitoneally twice daily for five days beginning at either 6, 24 or 48 hours after virus inoculation. Animals were observed daily and the number dying each day recorded.

human PBLs = assay: DNA synthesis in mitogen-stimulated human PBLs; type: cell-based; conditions: pokeweed mitogen or concanavalin A; 0.1, 1, 10 and 100 μM
Growth of HFF cells = type: cell-based, human; conditions: human, hff cells; 100 μM; 70-hour incubation; read-out: reduction of number of HFF cells
Method: (§1) Population doubling times and cell viability were measured in uninfected HFF and/or KB cells. Cells were planted in replicate 6-well plastic tissue culture dishes or in 25 cm^2 flasks as described above in part 1. Following an incubation period during which cells attached to the substrate, medium was decanted, the cell sheet rinsed once with HBS, and fresh medium added. The medium consisted of MEM(E) with 1.1 gm NaHCO3 /liter and 10% fetal bovine or calf serum plus appropriate log or half-log concentrations of drug. After additional periods of incubation from 1 to 72 hours at 37° C., cells were harvested by means of 0.05% trypsin plus 0.02% EDTA in a HEPES-buffered salt solution. Cells were enumerated using either a Coulter counter or a hemocytometer and viability determining using trypsan blue dye exclusion.
The effect of these compounds on the growth of human diploid fibroblasts (HFF cells) was less pronounced. During a 70-hour incubation, control cells underwent two doublings. […] A 100 μM concentration reduced the number of cells by less than 10%.

[1] = Drug toxicity control in uninfected mice; type: in vivo; conditions: for mortality: mouse, in vivo, ip, read-out: Mortality Percent (Toxicity)
[2] = Growth of KB cells (population doubling times); type: cell-based, human; conditions: human, kb cells; 100 μM; read-out: reduction of KB cell growth rate
Method: as §1
In more extensive cytotoxicity testing, the halogenated compounds were tested for effects on the growth of KB cells. Populations doubling times were calculated from the logarithmic portions of growth curves and were as follows: […]

Structure (SMILES): Nc1nc(O)c2ncn(COC(CO)CO)c2n1 [Ganciclovir (DHPG), reference compound]
- MDD (Mean Day of Death) (MCMV; 0.6 mg/kg at 6 h): 4.6 days
- Mortality Number (MCMV; 0.6 mg/kg at 6 h): 14/15
- Mortality Percent (MCMV; 0.6 mg/kg at 6 h): 93%
- MDD (Mean Day of Death) (MCMV; 0.6 mg/kg at 24 h): 5.4 days
- Mortality Number (MCMV; 0.6 mg/kg at 24 h): 12/15
- Mortality Percent (MCMV; 0.6 mg/kg at 24 h): 80%
- MDD (Mean Day of Death) (MCMV; 0.6 mg/kg at 48 h): 5.3 days
- Mortality Number (MCMV; 0.6 mg/kg at 48 h): 14/15
- Mortality Percent (MCMV; 0.6 mg/kg at 48 h): 93%
- MDD (Mean Day of Death) (MCMV; 1.9 mg/kg at 6 h): 5.4 days
- Mortality Number (MCMV; 1.9 mg/kg at 6 h): 5/15
- Mortality Percent (MCMV; 1.9 mg/kg at 6 h): 33%
- MDD (Mean Day of Death) (MCMV; 1.9 mg/kg at 24 h): 4.9 days
- Mortality Number (MCMV; 1.9 mg/kg at 24 h): 12/15
- Mortality Percent (MCMV; 1.9 mg/kg at 24 h): 80%
- MDD (Mean Day of Death) (MCMV; 1.9 mg/kg at 48 h): 4.9 days
- Mortality Number (MCMV; 1.9 mg/kg at 48 h): 11/15
- Mortality Percent (MCMV; 1.9 mg/kg at 48 h): 73%
- MDD (Mean Day of Death) (MCMV; 5.6 mg/kg at 6 h): 4.2 days
- Mortality Number (MCMV; 5.6 mg/kg at 6 h): 5/15
- Mortality Percent (MCMV; 5.6 mg/kg at 6 h): 33%
- MDD (Mean Day of Death) (MCMV; 5.6 mg/kg at 24 h): 5.3 days
- Mortality Number (MCMV; 5.6 mg/kg at 24 h): 7/15
- Mortality Percent (MCMV; 5.6 mg/kg at 24 h): 47%
- MDD (Mean Day of Death) (MCMV; 5.6 mg/kg at 48 h): 5.5 days
- Mortality Number (MCMV; 5.6 mg/kg at 48 h): 10/15
- Mortality Percent (MCMV; 5.6 mg/kg at 48 h): 67%
- MDD (Mean Day of Death) (MCMV; 16.7 mg/kg at 6 h): 3.8 days
- Mortality Number (MCMV; 16.7 mg/kg at 6 h): 4/15
- Mortality Percent (MCMV; 16.7 mg/kg at 6 h): 27%
- MDD (Mean Day of Death) (MCMV; 16.7 mg/kg at 24 h): 5.3 days
- Mortality Number (MCMV; 16.7 mg/kg at 24 h): 7/15
- Mortality Percent (MCMV; 16.7 mg/kg at 24 h): 47%
- MDD (Mean Day of Death) (MCMV; 16.7 mg/kg at 48 h): 5.5 days
- Mortality Number (MCMV; 16.7 mg/kg at 48 h): 8/15
- Mortality Percent (MCMV; 16.7 mg/kg at 48 h): 53%

Structure (SMILES): Nc1ncnc2c1c(Cl)cn2COCCO [UMJD 100, 4-Amino-5-chloro-7-(2-hydroxyethoxymethyl)pyrrolo[2,3-d]-pyrimidine]
- effect on DNA synthesis in human PBLs (human PBLs): did not affect DNA synthesis
- inhibition at 70 h, 100 µM (Growth of HFF cells): < 10%

Structure (SMILES): Nc1ncnc2c1c(Br)cn2COC(CO)CO [UMJD 183, 4-amino-5-bromo-7-[(1,3-dihydroxy-2-propoxy)methyl]-pyrrolo[2,3-d]pyrimidine]
- MDD (Mean Day of Death) (MCMV; 1.9 mg/kg at 6 h): 6.2 days
- Mortality Number (MCMV; 1.9 mg/kg at 6 h): 5/15
- Mortality Percent (MCMV; 1.9 mg/kg at 6 h): 33%
- MDD (Mean Day of Death) (MCMV; 1.9 mg/kg at 24 h): 4.8 days
- Mortality Number (MCMV; 1.9 mg/kg at 24 h): 9/15
- Mortality Percent (MCMV; 1.9 mg/kg at 24 h): 60%
- MDD (Mean Day of Death) (MCMV; 1.9 mg/kg at 48 h): 4.8 days
- Mortality Number (MCMV; 1.9 mg/kg at 48 h): 10/15
- Mortality Percent (MCMV; 1.9 mg/kg at 48 h): 67%
- number of animals surviving virus infection (in words) (MCMV; 5.6 mg/kg): highly significant increases in the number of animals surviving
- MDD (Mean Day of Death) (MCMV; 5.6 mg/kg at 6 h): 8.0 days
- Mortality Number (MCMV; 5.6 mg/kg at 6 h): 1/15
- Mortality Percent (MCMV; 5.6 mg/kg at 6 h): 7%
- MDD (Mean Day of Death) (MCMV; 5.6 mg/kg at 24 h): 6.3 days
- Mortality Number (MCMV; 5.6 mg/kg at 24 h): 3/15
- Mortality Percent (MCMV; 5.6 mg/kg at 24 h): 20%
- MDD (Mean Day of Death) (MCMV; 5.6 mg/kg at 48 h): 5.5 days
- Mortality Number (MCMV; 5.6 mg/kg at 48 h): 6/15
- Mortality Percent (MCMV; 5.6 mg/kg at 48 h): 40%
- MDD (Mean Day of Death) (MCMV; 16.7 mg/kg at 6 h): 8.7 days
- Mortality Number (MCMV; 16.7 mg/kg at 6 h): 9/15
- Mortality Percent (MCMV; 16.7 mg/kg at 6 h): 60%
- MDD (Mean Day of Death) (MCMV; 16.7 mg/kg at 24 h): 7.1 days
- Mortality Number (MCMV; 16.7 mg/kg at 24 h): 12/15
- Mortality Percent (MCMV; 16.7 mg/kg at 24 h): 80%
- MDD (Mean Day of Death) (MCMV; 16.7 mg/kg at 48 h): 8.4 days
- Mortality Number (MCMV; 16.7 mg/kg at 48 h): 13/15
- Mortality Percent (MCMV; 16.7 mg/kg at 48 h): 87%
- MDD (Mean Day of Death) (MCMV; 50 mg/kg at 6 h): 10.8 days
- Mortality Percent (MCMV; 50 mg/kg at 6 h): 60%
- Mortality Number (MCMV; 50 mg/kg at 6 h, i.p. twice daily 5 days): 9/15
- MDD (Mean Day of Death) (MCMV; 50 mg/kg at 24 h): 8.8 days
- Mortality Number (MCMV; 50 mg/kg at 24 h): 14/15
- Mortality Percent (MCMV; 50 mg/kg at 24 h): 93%
- MDD (Mean Day of Death) (MCMV; 50 mg/kg at 48 h): 7.5 days
- Mortality Number (MCMV; 50 mg/kg at 48 h): 13/15
- Mortality Percent (MCMV; 50 mg/kg at 48 h): 87%
- life span of MCMV-infected mice (in words) (MCMV; all doses): prolonged life span (increased the mean day of death) at all doses
- Mortality Number (Toxicity) ([1]; 1.9 mg/kg, no virus): 0/15
- Mortality Number (Toxicity) ([1]; 5.6 mg/kg, no virus): 0/15
- MDD (Toxicity) ([1]; 16.7 mg/kg, no virus): 5.0 days
- Mortality Number (Toxicity) ([1]; 16.7 mg/kg, no virus): 1/15
- Mortality Number (Toxicity) ([1]; 50 mg/kg, no virus): 0/15
- toxicity in uninfected animals (in words) ([1]; administered alone to uninfected animals): virtually no toxicity
- deaths in uninfected animals ([1]; all doses together): 1 death in 60 animals
- mortality ([1]; 1.9 mg/kg, no virus): 0%
- mortality ([1]; 5.6 mg/kg, no virus): 0%
- mortality ([1]; 16.7 mg/kg, no virus): 7%
- mortality ([1]; 50 mg/kg, no virus): 0%

Structure (SMILES): OCC(CO)OCn1cc(Br)c2c(NO)ncnc21 [UMJD 299, 4-hydroxylamino-5-bromo-7-[(1,3-dihydroxy-2-propoxy)methyl]pyrrolo[2,3-d]pyrimidine]
- inhibition at 100 µM [2]: > 50%
